The compounds below were run against T1, full length AKT E17K (Homo sapiens, UniProt P31749, E17K) (assay: NanoBRET Target Engagement (TE) Assay). Conditions: competitive tracer displacement in living cells, read-out: AKT1 E17K IC50.
T1 construct: host or cells: HEK-293 (ATCC CRL-1573)
Type: cell-based
Method in brief: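 Compound and tracer incubated 2 h before luminescence at donor 450 nm and acceptor 600 nm, with extracellular signal inhibited. EC50 by sigmoidal variable-slope regression.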

T1 sequence (P31749 whole entry E17K): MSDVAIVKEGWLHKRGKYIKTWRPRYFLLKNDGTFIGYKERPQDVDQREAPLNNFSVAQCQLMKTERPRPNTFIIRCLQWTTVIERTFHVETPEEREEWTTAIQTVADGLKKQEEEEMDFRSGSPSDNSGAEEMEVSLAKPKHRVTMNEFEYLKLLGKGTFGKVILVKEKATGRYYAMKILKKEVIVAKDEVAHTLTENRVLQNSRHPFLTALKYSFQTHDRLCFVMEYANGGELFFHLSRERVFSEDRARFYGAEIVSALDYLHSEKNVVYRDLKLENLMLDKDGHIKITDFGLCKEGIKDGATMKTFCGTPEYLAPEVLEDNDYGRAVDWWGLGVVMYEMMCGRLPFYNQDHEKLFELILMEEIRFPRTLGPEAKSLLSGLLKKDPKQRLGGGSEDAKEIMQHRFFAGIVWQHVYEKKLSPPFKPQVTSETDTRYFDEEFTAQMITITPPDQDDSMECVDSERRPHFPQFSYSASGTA

SMILES | IC50 [µM]
N#Cc1cc(NCc2ccc(-n3c(-c4cccnc4N)nc4cccnc43)cc2)ncn1 [Example 135, 6-((4-(2-(2-aminopyridin-3-yl)-3H-imidazo[4,5-b]pyridin-3-yl)benzyl)amino)pyrimidine-4-carbonitrile] | 0.6 to 10
N#Cc1cc(C(=O)N2CCN(Cc3ccc(-n4c(-c5cccnc5N)nc5cc(-c6ccccc6)cnc54)cc3)CC2)ccn1 [Example 137, 4-(4-(4-(2-(2-Aminopyridin-3-yl)-6-phenyl-3H-imidazo[4,5-b]pyridin-3-yl)benzyl)piperazine-1-carbonyl)picolinonitrile] | 0.6 to 10
N#Cc1cncc(C(=O)N2CCN(Cc3ccc(-n4c(-c5cccnc5N)nc5ccc(-c6ccccc6)nc54)cc3)CC2)c1 [Example 139, 5-(4-(4-(2-(2-Aminopyridin-3-yl)-5-phenyl-3H-imidazo[4,5-b]pyridin-3-yl)benzyl)piperazine-1-carbonyl)nicotinonitrile] | 0.6 to 10
N#Cc1ccc(C(=O)N2CCN(Cc3ccc(-n4c(-c5cccnc5N)nc5ccc(-c6ccccc6)nc54)cc3)CC2)nc1 [Example 142, 6-(4-(4-(2-(2-Aminopyridin-3-yl)-5-phenyl-3H-imidazo[4,5-b]pyridin-3-yl)benzyl)piperazine-1-carbonyl)nicotinonitrile] | 0.6 to 10
N#Cc1cnccc1C(=O)N1CCN(Cc2ccc(-n3c(-c4cccnc4N)nc4ccc(-c5ccccc5)nc43)cc2)CC1 [Example 144, 4-(4-(4-(2-(2-Aminopyridin-3-yl)-5-phenyl-3H-imidazo[4,5-b]pyridin-3-yl)benzyl)piperazine-1-carbonyl)nicotinonitrile] | 0.6 to 10
N#Cc1ccncc1C(=O)N1CCN(Cc2ccc(-n3c(-c4cccnc4N)nc4ccc(-c5ccccc5)nc43)cc2)CC1 [Example 145, 3-(4-(4-(2-(2-Aminopyridin-3-yl)-5-phenyl-3H-imidazo[4,5-b]pyridin-3-yl)benzyl)piperazine-1-carbonyl)isonicotinonitrile] | 0.6 to 10
N#Cc1cccnc1C(=O)N1CCN(Cc2ccc(-n3c(-c4cccnc4N)nc4ccc(-c5ccccc5)nc43)cc2)CC1 [Example 146, 2-(4-(4-(2-(2-Aminopyridin-3-yl)-5-phenyl-3H-imidazo[4,5-b]pyridin-3-yl)benzyl)piperazine-1-carbonyl)nicotinonitrile] | 0.6 to 10
N#Cc1ccnc(C(=O)NCc2ccc(-n3c(-c4cccnc4N)nc4cccnc43)cc2)c1 [Example 147, N-(4-(2-(2-Aminopyridin-3-yl)-3H-imidazo[4,5-b]pyridin-3-yl)benzyl)-4-cyanopicolinamide] | 0.6 to 10
N#Cc1nccc(C(=O)NCc2ccc(-n3c(-c4cccnc4N)nc4cccnc43)cc2)n1 [Example 148, N-(4-(2-(2-Aminopyridin-3-yl)-3H-imidazo[4,5-b]pyridin-3-yl)benzyl)-2-cyanopyrimidine-4-carboxamide] | 0.6 to 10
N#Cc1ccnc(C(=O)N2CCN(Cc3ccc(-n4c(-c5cccnc5N)nc5cccnc54)cc3)CC2)c1 [Example 149, 2-(4-(4-(2-(2-Aminopyridin-3-yl)-3H-imidazo[4,5-b]pyridin-3-yl)benzyl)piperazine-1-carbonyl)isonicotinonitrile] | 0.6 to 10
N#Cc1ncccc1C(=O)N1CCN(Cc2ccc(-n3c(-c4cccnc4N)nc4cccnc43)cc2)CC1 [Example 153, 3-(4-(4-(2-(2-Aminopyridin-3-yl)-3H-imidazo[4,5-b]pyridin-3-yl)benzyl)piperazine-1-carbonyl)picolinonitrile] | 0.6 to 10
N#Cc1cnccc1C(=O)N1CCN(Cc2ccc(-n3c(-c4cccnc4N)nc4cccnc43)cc2)CC1 [Example 154, 4-(4-(4-(2-(2-Aminopyridin-3-yl)-3H-imidazo[4,5-b]pyridin-3-yl)benzyl)piperazine-1-carbonyl)nicotinonitrile] | 0.6 to 10
N#Cc1ccncc1C(=O)N1CCN(Cc2ccc(-n3c(-c4cccnc4N)nc4cccnc43)cc2)CC1 [Example 155, 3-(4-(4-(2-(2-Aminopyridin-3-yl)-3H-imidazo[4,5-b]pyridin-3-yl)benzyl)piperazine-1-carbonyl)isonicotinonitrile] | 0.6 to 10
N#Cc1ccc(NC2CCN(Cc3ccc(-n4c(-c5cccnc5N)nc5cccnc54)cc3)CC2)cn1 [Example 157, 5-((1-(4-(2-(2-aminopyridin-3-yl)-3H-imidazo[4,5-b]pyridin-3-yl)benzyl)piperidin-4-yl)amino)picolinonitrile] | 0.6 to 10

Further lines, results first:

IC50 [µM] | SMILES
0.6 to 10 | N#Cc1cncc(C(=O)NCc2ccc(-n3c(-c4cccnc4N)nc4cccnc43)cc2)c1 [Example 123, N-(4-(2-(2-Aminopyridin-3-yl)-3H-imidazo[4,5-b]pyridin-3-yl)benzyl)-5-cyanonicotinamide]
0.6 to 10 | N#Cc1ccc(C(=O)NCc2ccc(-n3c(-c4cccnc4N)nc4cccnc43)cc2)nc1 [Example 124, N-(4-(2-(2-Aminopyridin-3-yl)-3H-imidazo[4,5-b]pyridin-3-yl)benzyl)-5-cyanopicolinamide]
0.6 to 10 | N#Cc1cc(NCc2ccc(-n3c(-c4cccnc4N)nc4cccnc43)cc2)ccn1 [Example 127, 4-((4-(2-(2-Aminopyridin-3-yl)-3H-imidazo[4,5-b]pyridin-3-yl)benzyl)amino)picolinonitrile]
0.6 to 10 | N#Cc1ccc(NCc2ccc(-n3c(-c4cccnc4N)nc4cccnc43)cc2)cn1 [Example 128, 5-((4-(2-(2-Aminopyridin-3-yl)-3H-imidazo[4,5-b]pyridin-3-yl)benzyl)amino)picolinonitrile]
0.6 to 10 | N#Cc1cccc(NCc2ccc(-n3c(-c4cccnc4N)nc4cccnc43)cc2)n1 [Example 130, 6-((4-(2-(2-Aminopyridin-3-yl)-3H-imidazo[4,5-b]pyridin-3-yl)benzyl)amino)picolinonitrile]
0.6 to 10 | N#Cc1cncc(NCc2ccc(-n3c(-c4cccnc4N)nc4cccnc43)cc2)c1 [Example 131, 5-((4-(2-(2-Aminopyridin-3-yl)-3H-imidazo[4,5-b]pyridin-3-yl)benzyl)amino)nicotinonitrile]
0.6 to 10 | N#Cc1ccnc(NCc2ccc(-n3c(-c4cccnc4N)nc4cccnc43)cc2)c1 [Example 132, 2-((4-(2-(2-Aminopyridin-3-yl)-3H-imidazo[4,5-b]pyridin-3-yl)benzyl)amino)isonicotinonitrile]
0.6 to 10 | N#Cc1cncc(NCc2ccc(-n3c(-c4cccnc4N)nc4cccnc43)cc2)n1 [Example 133, 6-((4-(2-(2-Aminopyridin-3-yl)-3H-imidazo[4,5-b]pyridin-3-yl)benzyl)amino)pyrazine-2-carbonitrile]
0.6 to 10 | N#Cc1ccnc(NCc2ccc(-n3c(-c4cccnc4N)nc4cccnc43)cc2)n1 [Example 134, 2-((4-(2-(2-Aminopyridin-3-yl)-3H-imidazo[4,5-b]pyridin-3-yl)benzyl)amino)pyrimidine-4-carbonitrile]
0.06 to 0.6 | N#Cc1cccc(C(=O)N2CCN(Cc3ccc(-n4c(-c5cccnc5N)nc5ccc(-c6ccccc6)nc54)cc3)CC2)n1 [Example 138, 6-(4-(4-(2-(2-Aminopyridin-3-yl)-5-phenyl-3H-imidazo[4,5-b]pyridin-3-yl)benzyl)piperazine-1-carbonyl)picolinonitrile]
0.06 to 0.6 | N#Cc1ccnc(C(=O)N2CCN(Cc3ccc(-n4c(-c5cccnc5N)nc5ccc(-c6ccccc6)nc54)cc3)CC2)c1 [Example 140, 2-(4-(4-(2-(2-Aminopyridin-3-yl)-5-phenyl-3H-imidazo[4,5-b]pyridin-3-yl)benzyl)piperazine-1-carbonyl)isonicotinonitrile]
< 0.015 | N#Cc1nccc(C(=O)N2CCN(Cc3ccc(-n4c(-c5cccnc5N)nc5ccc(-c6ccccc6)nc54)cc3)CC2)n1 [Example 141, 4-(4-(4-(2-(2-Aminopyridin-3-yl)-5-phenyl-3H-imidazo[4,5-b]pyridin-3-yl)benzyl)piperazine-1-carbonyl)pyrimidine-2-carbonitrile]
0.06 to 0.6 | N#Cc1ncccc1C(=O)N1CCN(Cc2ccc(-n3c(-c4cccnc4N)nc4ccc(-c5ccccc5)nc43)cc2)CC1 [Example 143, 3-(4-(4-(2-(2-Aminopyridin-3-yl)-5-phenyl-3H-imidazo[4,5-b]pyridin-3-yl)benzyl)piperazine-1-carbonyl)picolinonitrile]
0.06 to 0.6 | N#Cc1ccnc(C(=O)NC2CCN(Cc3ccc(-n4c(-c5cccnc5N)nc5ccc(-c6ccccc6)nc54)cc3)CC2)c1 [Example 150, N-(1-(4-(2-(2-Aminopyridin-3-yl)-5-phenyl-3H-imidazo[4,5-b]pyridin-3-yl)benzyl)piperidin-4-yl)-4-cyanopicolinamide]
< 0.015 | N#Cc1nccc(C(=O)NC2CCN(Cc3ccc(-n4c(-c5cccnc5N)nc5ccc(-c6ccccc6)nc54)cc3)CC2)n1 [Example 151, N-(1-(4-(2-(2-Aminopyridin-3-yl)-5-phenyl-3H-imidazo[4,5-b]pyridin-3-yl)benzyl)piperidin-4-yl)-2-cyanopyrimidine-4-carboxamide]
0.06 to 0.6 | N#Cc1nccc(C(=O)N2CCN(Cc3ccc(-n4c(-c5cccnc5N)nc5cccnc54)cc3)CC2)n1 [Example 152, 4-(4-(4-(2-(2-aminopyridin-3-yl)-3H-imidazo[4,5-b]pyridin-3-yl)benzyl)piperazine-1-carbonyl)pyrimidine-2-carbonitrile]
0.015 to 0.06 | CN(c1ccnc(C#N)n1)C1CCN(Cc2ccc(-n3c(-c4cccnc4N)nc4ccc(-c5ccccc5)nc43)cc2)CC1 [Example 156, 4-((1-(4-(2-(2-Aminopyridin-3-yl)-5-phenyl-3H-imidazo[4,5-b]pyridin-3-yl)benzyl)piperidin-4-yl)(methyl)amino)pyrimidine-2-carbonitrile]
0.015 to 0.06 | N#Cc1cc(NC2CCN(Cc3ccc(-n4c(-c5cccnc5N)nc5ccc(-c6ccccc6)nc54)cc3)CC2)cnn1 [Example 158, 5-((1-(4-(2-(2-Aminopyridin-3-yl)-5-phenyl-3H-imidazo[4,5-b]pyridin-3-yl)benzyl)piperidin-4-yl)amino)pyridazine-3-carbonitrile]
